Reference: patent US20030108584A1, “Method for producing wax premixes” (priority 2000, published 2003)

Assay: Breakdown of active substance during preparation of wax premix by the melt method
Assay type: physicochemical
Details: comparative Example C, montan wax melt at 110° C.
Experimental: Preparation of a wax premix by the melt method.
32 parts by weight of montan wax in sheet form are heated, in a mixer, at 110° C. to give a melt. To this melt there are added
15 parts by weight of cyclosulfamuron in the form of particles with an average diameter of 5μ with stirring at 110° C. The resulting suspension is stirred at high speed for 10 minutes at 110° C. and then treated portionwise with
26.5 parts by weight of highly-disperse silica while stirring is continued at full mixer speed. The resulting flowable powder is cooled to room temperature with stirring and with addition of
26.5 parts by weight of talc.
This gives a wax premix consisting of agglomerated particles. Approximately 10 percent by weight of the cyclosulfamuron present are broken down.

cyclosulfamuron present broken down: Approximately 10 percent by weight
SMILES: COc1cc(OC)nc(NC(=O)NS(=O)(=O)Nc2ccccc2C(=O)C2CC2)n1 [cyclosulfamuron]
